Results from patent US12116365B2, “Heterocyclic compounds and uses thereof” (Opna Bio SA, priority 2015, dated 2024).
Entries after “also recorded” stand apart in the source; their conditions may differ.

Tests used:
[1] = Rat PK, cassette dosing, IV and PO; format: in vivo; details: for Cl (mL/min/Kg) / Vss (L/Kg) / AUC / Cmax / Tmax / half-life: Mean (SE); for AUC / Cmax / Tmax / half-life / bioavailability: plasma
Method: Rat PK data was determined using a cassette dosing format with 5 compounds administered to each of three rats for IV and three rats for PO. The IV dose was 1 mg/kg for each compound in 8.75% solutol, 8.75% ethanol, 12.5% DMSO and 70% water by volume. The PO dose was 2 mg/kg for each compound in 1% methylcellulose in water, 10% DMSO by volume. Plasma IV samples were collected at 15 min, 30 min, 1 hr, 2 hrs, 4 hrs, 8 hrs, and 24 hrs. Plasma PO samples were collected at 30 min, 1 hr, 2 hrs, 4 hrs, 8 hrs, and 24 hrs. Plasma drug concentrations were determined by LC/MS/MS after standard curve calibration for each test article. Dosing solutions were also analyzed for test article and used to calculate the administered dose. The PK parameters were calculated using WinNonLin (v 6.3, Phoenix 64, Pharsight) using a noncompartmental model.
Tables 1 and 2 show comparative data for both intravenous (IV) and peroral (PO) administration in rat for Compound P-001 of this disclosure and a similar structural compound disclosed in the WO 2014/145051, Compound Z. Values are reported as the Mean with the Standard Error (SE) in parentheses.

IPC298 Xenograft = experiment: IPC298 xenograft model, tumor growth; format: in vivo, mice; details: for antitumor activity (in words): 10 mg/kg po QD x16; for Average Tumor Volume (mm^3) / Tumor Size (Day 27, mm^3) / TGI (%): 10 mg/kg po QD; for TGI (%): tumor growth inhibition
Method: Treatment: The treatments started on Day 11 after tumor inoculation when the mean tumor size reached approximately 150 mm^3. Mice were randomized into 10 study groups and each group consisted of 8 mice. The test articles were administrated to the tumor-bearing mice according to predetermined treatment regimen as shown in Table 3.
Tumor measurements and the endpoints: The major endpoint was to see if the tumor growth could be delayed or regressed. Tumor size was measured twice a week in two dimensions using a caliper, and the volume was expressed in mm^3 using the formula: V=0.5a×b^2 where a and b are the long and short diameters of the tumor, respectively. The tumor size was then used for calculation of tumor growth inhibition (TGI, in percent). The TGI value is an indication of antitumor effectiveness: TGI=(1−T/C)×100%. T and C are the means of relative tumor volumes of the treated and control groups, respectively. T and C are calculated using the formula: T=Td/T0×100%, C=Cd/C0×100%, where Td and Cd are tumor volumes of the treated and control animals, respectively, on Day 28 after tumor inoculation; T0 and C0 are tumor volumes of the treated and control animals, respectively, at the start of the treatment

[2] = Toxicity profile, body weight in Ba/F3 splenomegaly model; format: in vivo; parameters: Delta Body Weight Loss: unit not given here; details: for observed toxicity (in words): 10 mg/kg over 7 days of dosing; for Delta Body Weight Loss: 10 mg/kg oral QD
Source text: The […] cell line, Ba/F3, depends on the addition of IL-3 for growth in cell culture. However Ba/F3 cells engineered to express a full length oncogene is capable of rendering Ba/F3 cells factor-independent, but become apoptotic when the oncogene or downstream signaling is inhibited by the addition of small molecule inhibitors. When injected into the tail veins of nude mice, the factor-independent Ba/F3 cells home to the spleen and proliferate to cause a marked splenomegaly. The in vivo proliferation of the factor-independent Ba/F3 cells and appearance of splenomegaly are directly dependent on the activity of the Ba/F3 cells and can be blocked by oral administration of compounds that are effective inhibitors of cell growth. Therefore, this animal model can be used to ascertain the effective doses for Ba/F3 cell inhibition, evaluation of both PK/PD effects as well as a readout of toxicity or MTD.
FIG. 2 illustrates the observed toxicity when dosing Compound P-001 and Compound Z at 10 mg/kg to nu/nu mice over a period of 7 days.

[3] = Table 2, titled Peroral (PO) Administration in Rat
[4] = 1 mg/kg, Table 1, titled Intravenous (IV) Administration in Rat
[5] = 2 mg/kg, Table 2, titled Peroral (PO) Administration in Rat

Cc1noc(C)c1-c1cnc2c(-c3ccc(C(=O)O)cc3)cn(C(C)(c3ccccn3)c3ccccn3)c2c1 [Compound P-001, 4-(1-(1,1-di(pyridin-2-yl)ethyl)-6-(3,5-dimethylisoxazol-4-yl)-1H-pyrrolo[3,2-b]pyridin-3-yl)benzoic acid]
rat PK compared to Compound Z (in words) ([1]; IV and PO): dramatic improvement | Cl (mL/min/Kg) [1, 3]: 3 (0) mL/min/Kg | Vss (L/Kg) [1, 3]: 0.469 (0.015) L/Kg | AUC [1, 4]: 7670 ng·h/mL | Cmax [1, 4]: 1210 ng/mL | Tmax [1, 4]: 40.2 min | half-life [1, 4]: 248 min | AUC [1, 5]: 7670 ng·h/mL | bioavailability [1, 5]: 103% | antitumor activity (in words) (IPC298 Xenograft): strong antitumor activity; also recorded: strong therapeutic efficacy | Average Tumor Volume (mm^3) (IPC298 Xenograft; Day 0): 124.7 mm^3 | Average Tumor Volume (mm^3) (IPC298 Xenograft; Day 4): 94.5 mm^3 | Average Tumor Volume (mm^3) (IPC298 Xenograft; Day 6): 91.5 mm^3 | Average Tumor Volume (mm^3) (IPC298 Xenograft; Day 8): 90.0 mm^3 | Average Tumor Volume (mm^3) (IPC298 Xenograft; Day 11): 96.9 mm^3 | Average Tumor Volume (mm^3) (IPC298 Xenograft; Day 13): 99.2 mm^3 | Tumor Size (Day 27, mm^3) (IPC298 Xenograft): 99.2 ± 13.5 mm^3 | TGI (%) (IPC298 Xenograft): 112% | observed toxicity (in words) [2]: no toxicity was observed | Delta Body Weight Loss ([2]; Day 1): 0 | Delta Body Weight Loss ([2]; Day 2): 0.75 | Delta Body Weight Loss ([2]; Day 3): 1.375 | Delta Body Weight Loss ([2]; Day 5): 1.125 | Delta Body Weight Loss ([2]; Day 6): 1.825 | Delta Body Weight Loss ([2]; Day 7): 2.075

Cc1noc(C)c1-c1cnc2c(-c3ccc(C(=O)O)cc3)cn(C(c3ccccn3)c3ccccn3)c2c1 [Compound Z, reference compound]
Cl (mL/min/Kg) [1, 3]: 36 (4) mL/min/Kg | Vss (L/Kg) [1, 3]: 1.061 (0.109) L/Kg | AUC [1, 4]: 125 ng·h/mL | Cmax [1, 4]: 80 ng/mL | Tmax [1, 4]: 30 min | half-life [1, 4]: 78.6 min | AUC [1, 5]: 125 ng·h/mL | bioavailability [1, 5]: 17% | antitumor activity (in words) (IPC298 Xenograft): moderate antitumor activity | Average Tumor Volume (mm^3) (IPC298 Xenograft; Day 0): 124.0 mm^3 | Average Tumor Volume (mm^3) (IPC298 Xenograft; Day 4): 119.8 mm^3 | Average Tumor Volume (mm^3) (IPC298 Xenograft; Day 6): 124.0 mm^3 | Average Tumor Volume (mm^3) (IPC298 Xenograft; Day 8): 120.6 mm^3 | Average Tumor Volume (mm^3) (IPC298 Xenograft; Day 11): 106.8 mm^3 | Average Tumor Volume (mm^3) (IPC298 Xenograft; Day 13): 141.5 mm^3 | Tumor Size (Day 27, mm^3) (IPC298 Xenograft): 141.5 ± 16.3 mm^3 | TGI (%) (IPC298 Xenograft): 92% | observed toxicity (in words) [2]: significant toxicity after the 2nd day of dosing | Delta Body Weight Loss ([2]; Day 1): 0 | Delta Body Weight Loss ([2]; Day 2): −0.125 | Delta Body Weight Loss ([2]; Day 3): −0.6 | Delta Body Weight Loss ([2]; Day 5): −1.125 | Delta Body Weight Loss ([2]; Day 6): −2.475 | Delta Body Weight Loss ([2]; Day 7): −3.75
